# Test results: paper PMC3877906, “Polypeptide Modulators of TRPV1 Produce Analgesia without Hyperthermia” (Marine Drugs, 2013)
# Assays:
# [1] = tested on: CD-1 mice; experiment: hot plate test; assay type: in vivo, mouse; conditions: 0.1 and 1 mg/kg; 55 °C
# Procedure: The hot plate test is a most simple for TRPV1 inhibitor characterization since TRPV1 play significant role in temperature sensation. Effect of APHC1 and APHC3 on thermal nociception at dose 0.1 mg/kg after intramuscular, intraperitoneal and intravenous administration was measured before. […] Here we assessed changes in thermal nociception to a noxious thermal stimuli elicited by different doses of APHC1 and APHC3 to determine minimal effective dose. […] Both polypeptides reached maximal effect at 0.1 mg/kg.
# (§1) All experiments were performed in accordance with the recommendations in the “Principles of Laboratory Animal Care” and after approval by the Animal Care and Use Committee of the Branch of the IBCh RAS (Pushchino, Russia). Adult male CD-1 mice (Animal Breeding Facility Branch of Shemyakin-Ovchinnikov Institute of Bioorganic Chemistry, Russian Academy of Sciences, Pushchino, Russia) weighing 20–25 g were used. Animals were allowed to acclimate in the laboratory for at least five days. Mice were housed at room temperature (23 ± 2 °C) on a 12 h light–dark cycle with food and water available ad libitum. Polypeptides or vehicle was administered intravenously 15 min before testing.
# (§2) The significance of the data was determined by analysis of variance (ANOVA) followed by Tukey’s test. Data are presented as mean ± S.E.
# Sensitivity to a thermal stimulus was determined by hind paw withdrawal or licking latency using a Hot-Plate Analgesia Meter (Columbus Instruments, Columbus, OH, USA) at 55 °C.
# [2] = tested on: CD-1 mice; experiment: core body temperature (rectal measuring); assay type: in vivo, mouse; conditions: for core body temperature, in words: rectal measuring, mice, vs saline
# Procedure: Admittedly, hyperthermia is considered a critical side effect of TRPV1 antagonists, so we assessed the effect of the polypeptides on body temperature. Polypeptides were administered intravenously at doses 0.1 mg/kg and 0.5 mg/kg, and rectal temperature was monitored (Figure 5a,b).
# as §1, §2
# The MLT1404 Rectal Temperature Probe and Chart Power Lab (ADInstruments Inc., Colorado Springs, CO, USA) was used to record body temperature. During recording, the animals were placed in a MLA5018 Rodent Restrainer (ADInstruments Inc., Colorado Springs, CO, USA). The adaptation period was 20 min. Core body temperature was recorded every minute for 20 min before and 100 min after test compound administration. AMG9810 was dissolved in DMSO and was injected intraperitoneally.
# [3] = tested on: TRPV1; assay type: cell-based, rat
# Procedure: Figure 2 Effects of APHC3 on recombinant TRPV1 expressed in HEK-293 cells. (a) Resting current recorded from a TRPV1-positive cell held at −30 mV. […] Straight lines above the recording indicate application of APHC3 (Long line) and capsaicin (Short lines). The cells were stimulated and rinsed by rapid switching of the bath solution between the control solution and solutions containing the indicated compound. (b) Capsaicin responses in control and in the presence of the 300 nM APHC3 peptide. In each case, the control response was calculated as an average of two acid responses recorded just prior to peptide application. Averaged responses recorded in the presence of APHC3 were normalized to averaged control responses. Those are presented as the mean ± s.d. (n = 4). […] (c, d) Cell responses to the acidification of the bath solution from pH 7.4 to pH 5.5 in control and in the presence of the APHC3 applied at different concentrations as indicated. The experimental traces in (c) and in (d, upper trace) illustrate representative responses of EGFP/TRPV1-positive cells. The bottom trace in (d) represents responses of an EGFP/TRPV1-negative cell assayed simultaneously. (e) Acid responses recorded in the presence of APHC3 (90, 160 and 240 nM) normalized to a control response. The data are presented as the mean ± s.d. (n = 5–10). […] In each case, the control response was calculated as an average of the two acid responses recorded just prior to peptide application. The average of the two acid responses recorded after peptide application was calculated and normalized to the control response. Experimental traces in (c, d) were obtained from three different cells. The changes in bath solution pH (continuous lines) and APHC3 applications (thick straight lines) are shown above the fluorescence traces. Cells were stimulated and rinsed by a rapid replacement of the control bath solution with modified bath solution at pH 5.5 with or without APHC3.
# (§3) HEK-293 cells were cultured in Dulbecco’s modified Eagle’s medium (DMEM) (Life Technologies, Grand Island, NY, USA) containing 10% (vol/vol) fetal bovine serum (Thermo Fisher Scientific, Palm Beach, FL, USA), glutamine (1%) and the antibiotic gentamicin (100 μg/mL) (Life Technologies, Grand Island, NY, USA). The pIRES2-EGFP plasmid harboring rat TRPV1 cDNA was transiently transfected into HEK-293 cells by replacing the growth medium in each well with a transfection mixture, containing 1.6 μg of DNA and 4 μL of Lipofectamine (Life Technologies, Grand Island, NY, USA) in 1 mL of serum-free DMEM. After incubating for 6 h, the transfection mixture was replaced with normal culture medium. Cells were assayed within 48–96 h after transfection.
# Ion currents were recorded using an Axopatch 200A amplifier, with a DigiData 1322A interface, and pClamp8 software (Molecular Devices, Downingtown, PA, USA). External solutions were delivered by a gravity-driven perfusion system at a rate of 0.1 mL/s. Generally, the whole-cell patch clamp approach was used with recording pipettes containing (mM): 140 CsCl, 1 MgATP, 10 BAPTA, 10 HEPES-CsOH (pH 7.2). The basic bath solution included the following (mM): 140 NaCl, 5 KCl, 1 MgCl2, 1 CaCl2, 10 HEPES-NaOH (pH 7.4).
# [4] = tested on: TRPV1; experiment: Ca^2+ imaging, capsaicin responses of TRPV1-positive HEK-293 cells; assay type: cell-based, rat; conditions: 100 nM
# Procedure: as §3
# All recordings were performed at room temperature.
# [5] = stated as background; cited from earlier work
# Description: TRPV1 participates in thermoregulation, and almost all its known agonists and antagonists change core body temperature. […] The influence of antagonists on core body temperature is more complex. Antagonists that interact with the intracellular capsaicin-binding pocket of TRPV1 elicit a hyperthermic effect if they are able to inhibit pH-induced TRPV1 currents.
# [6] = biological target: Transient receptor potential vanilloid 1 receptor (TRPV1) (rat) (UniProt O35433)
# Chain of UniProt O35433 (O35433 whole entry): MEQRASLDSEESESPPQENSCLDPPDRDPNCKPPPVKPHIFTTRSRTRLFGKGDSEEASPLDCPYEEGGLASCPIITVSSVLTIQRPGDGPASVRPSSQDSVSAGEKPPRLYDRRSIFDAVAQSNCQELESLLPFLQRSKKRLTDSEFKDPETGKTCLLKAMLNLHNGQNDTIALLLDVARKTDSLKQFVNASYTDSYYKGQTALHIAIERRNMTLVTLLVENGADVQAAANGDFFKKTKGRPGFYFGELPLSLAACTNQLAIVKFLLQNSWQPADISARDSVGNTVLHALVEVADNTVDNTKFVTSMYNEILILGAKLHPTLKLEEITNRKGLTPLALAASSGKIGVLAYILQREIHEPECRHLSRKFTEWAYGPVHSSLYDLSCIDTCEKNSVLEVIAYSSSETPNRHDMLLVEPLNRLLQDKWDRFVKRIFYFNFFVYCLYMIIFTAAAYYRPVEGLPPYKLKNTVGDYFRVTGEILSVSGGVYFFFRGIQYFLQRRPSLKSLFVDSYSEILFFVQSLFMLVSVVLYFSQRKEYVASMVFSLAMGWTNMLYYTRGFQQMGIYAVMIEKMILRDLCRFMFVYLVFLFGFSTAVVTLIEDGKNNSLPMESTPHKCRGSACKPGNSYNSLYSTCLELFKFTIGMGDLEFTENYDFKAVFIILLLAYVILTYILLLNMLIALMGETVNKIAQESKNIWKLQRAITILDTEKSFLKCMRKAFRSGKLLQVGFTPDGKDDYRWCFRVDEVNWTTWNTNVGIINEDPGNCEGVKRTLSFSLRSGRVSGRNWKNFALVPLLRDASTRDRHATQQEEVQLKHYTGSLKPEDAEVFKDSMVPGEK
# [7] = tested on: TRPV1; conditions: ref [22],[23]; cited from earlier work
# Description: (§4) Several polypeptide modulators of TRPV1 that interact with the extracellular part of the receptor have been reported. […] The structural homology of APHCs to these proteins is minimal so both polypeptides presented structural distinct class of TRPV1 inhibitors.
# [8] = tested on: mice; conditions: ref [22],[23]; cited from earlier work
# Description: as §4
molecule,measurement,setting,value
aprotinin [reference compound],behavioral response to thermal stimuli,[1],did not change behavioral response to thermal stimuli
same,increase in core body temperature,"[2]; 0.1 mg/kg, not statistically significant vs saline, n = 7",0.4–0.5 °C
same,"core body temperature, in words",[2],did not change or modestly increase core body temperature
COc1cc(CNC(=O)CCCC/C=C/C(C)C)ccc1O [capsaicin],capsaicin-elicited currents,[3],elicited strong inward currents in all examined TRPV1-positive cells
same,capsaicin-elicited Ca^2+ responses,[4],elicited marked Ca^2+ responses
same,body temperature,[5],significant decrease in body temperature
"CC(C)(C)c1ccc(/C=C/C(=O)Nc2ccc3c(c2)OCCO3)cc1 [AMG9810, reference compound]",increase in body temperature,"[2]; 30 mg/kg i.p., vehicle 10% DMSO, significant, n = 7",1.6 °C
same,"core body temperature, in words",[2],produced hyperthermic effect
APHC3 (peptide) GSICLEPKVVGPCTAYFPRFYFNSETGKCTPFIYGGCEGNGNNFETLRACRGICRA,"inhibition of capsaicin (100 nM)-induced inward currents by 300 nM APHC3, whole-cell patch clamp on TRPV1-positive HEK-293 cells (n = 4)",[6],25%
"DkTx: spider's polypeptide that activates TRPV1 (protein, UniProt P0CH43 1-79, looked up) Tau-theraphotoxin-Hs1a: DCAKEGEVCSWGKKCCDLDNFYCPMEFIPHCKKYKPYVPVTTNCAKEGEVCGWGSKCCHGLDCPLAFIPYCEKYRGRND",effect on TRPV1 in vitro,[7],activate TRPV1 in vitro
same,pain response when injected in mice,[8],mediate the pain response
